The values that follow come from patent publication US20150328310A1, “METHODS AND COMPOSITIONS RELATING TO TREATMENT OF CANCER” (THE PENN STATE RESEARCH FOUNDATION, priority 2012, published 2015).

The subject of one data set is RKO cells. The data set can be described thus: Sub-G1 content by flow cytometry, combination. The format is cell-based, human. As to conditions: zVAD-fmk 25 μM. How it is done: (§1) For sub-G1 DNA content analysis, cells are trypsinized at the indicated time points and fixed in 80% ethanol at 4° C. for a minimum of 30 minutes. Fixed cells are then stained with propidium iodide in the presence of RNase and analyzed on an Epics Elite flow cytometer (Beckman Coulter).
On the technique in general: In flow cytometry, cells or beads pass a laser one at a time.

Data set [1] has as its system human colon cancer cell lines. The data set can be described thus: Cell cycle / sub-G1 DNA content analysis after ISC-4 treatment. The format is cell-based. As to the method:
as §1
The effect of ISC-4 treatment on cell cycle profiles of synchronous and asynchronous HCT116 (FIG. 1B) and HT-29 (FIG. 1C) cell lines is shown. […] Thus, ISC-4 has modest single agent activity against human colon cancer cells by causing cell death and a decrease in proliferation.

Data set [2] can be described thus: Serum chemistry profiles of mice. The format is in vivo. The conditions noted are these: serum 2 days after last dose; ISC-4 3 mg/kg i.p., cetuximab 10 mg/kg i.v., twice a week for 2 weeks. How it is done:
Athymic female nude mice (Charles River Laboratories) are inoculated with 1×10^6 of 5-FU-resistant RKO or HT-29 cells in each rear flank as a 200 μL suspension of 1:1 Matrigel (BD):PBS. Treatment is initiated once tumors reached a mean volume of […], intraperitoneal or intravenous injections are given at a total volume of 200 μL in DMSO. […] Tissue is paraffin-embedded and sectioned. H&E staining (Daiko) and TUNEL staining (Millipore) are carried out according to the manufacturer's protocols. For serum chemistry assays, 1 mL of blood is harvested from anesthetized mice by terminal cardiac puncture of the left ventricle. For serum chemistry, 500 μL is placed into a microfuge tube and allowed to clot for 30 minutes at room temperature followed by centrifugation. Serum is removed, centrifuged again to remove any additional debris prior to analysis.
Serum was collected 2 days following the last dose.

Data set [3] concerns panel of human cancer cell lines. The data set can be described thus: Cell viability assay of ISC-4 in a panel of human cancer cell lines (72 hr). The format is cell-based. As to conditions: human colon cancer cell lines with the exception of HT-29. How it is done:
Cell lines are obtained from ATCC and cultured in ATCC-recommended media in a humidified incubator at 5% CO2 and 37° C. For cell viability assays, cells are seeded into 96-well black-walled plates at a concentration of 1×10^5 cells per mL in fresh media and in a volume of 100 μL per well. Cells are allowed to adhere overnight and are treated the next day as indicated. At endpoint, CellTiter-Glo (Promega) assays are performed according to the manufacturer's protocol, and the bioluminescent readout is recorded on an IVIS imaging system (Xenogen). For cell synchronization, cells are incubated with 200 ng/mL nocodazole for 16 hours prior to treatment. Chloroquine is obtained from Sigma. zVAD-fmk is obtained from Promega and used at a working concentration of 25 μM. ISC-4 is synthesized as described in Sharma, A. K., et al., J. of Med. Chem., 2008, 51(24):7820-7826.
The in vitro activity of ISC-4 is tested in a panel of human cancer cell lines to characterize its spectrum of activity.
The isogenic HCT116 cell lines indicate that ISC-4 activity is likely p53- and Bax-independent.

Bounds are passed on as bounds.

Take `[Se]=C=NCCCCc1ccccc1` [ISC-4]: in the data set with RKO cells, the “ISC-4-induced sub-G1 content on co-incubation with pan-caspase inhibitor zVAD-fmk” value is recorded as “significantly inhibited”. The “Concentration at which ISC-4-induced sub-G1 content becomes apparent” value in data set [1] (colon cancer cell lines, 0, 1, 2, 4, 8, or 16 μM ISC-4, dose-dependent) is greater than 8 µM. The Sub-G1 content result in data set [1] (synchronized HCT116 and HT-29 cells) is given as “modest increase in sub-G1 content”. In data set [2], the ALT came to 29 ± 2 U/L, the AST stood at 221 ± 138 U/L, the “Alk. Phos. (alkaline phosphatase)” value came to 35 ± 10 U/L and the “BUN (blood urea nitrogen)” value came out at 22 ± 1 mg/dL. Further, in data set [2], the Cl is given as 107 ± 3 mmol/L, the Creatinine was 0.1 ± 0 mg/dL, the Glucose is 309 ± 8 mg/dL and the K was 4.8 ± .1 mmol/L. For the same compound, in data set [2], the “LDH (lactate dehydrogenase)” value is 1074 ± 531 U/L, the Na is on record as 155 ± 2 mmol/L and the “T. Bil (total bilirubin)” value worked out at 0.65 ± 0.07 mg/dL. Besides, the “Sensitivity to ISC-4 treatment” value in data set [3] is listed as “moderately sensitive”.
